The text below walks through data of EP0970046B1, “N-HYDROXY-2-(ALKYL, ARYL, OR HETEROARYL SULFANYL, SULFINYL OR SULFONYL)-3-SUBSTITUTED ALKYL, ARYL OR HETEROARYLAMIDES AS MATRIX METALLOPROTEINASE INHIBITORS” (Wyeth Holdings Corporation, priority 1997, dated 1998).

The inhibition is the relative decrease from the control value, in per cent.

T1 sequence (P78536 215-824): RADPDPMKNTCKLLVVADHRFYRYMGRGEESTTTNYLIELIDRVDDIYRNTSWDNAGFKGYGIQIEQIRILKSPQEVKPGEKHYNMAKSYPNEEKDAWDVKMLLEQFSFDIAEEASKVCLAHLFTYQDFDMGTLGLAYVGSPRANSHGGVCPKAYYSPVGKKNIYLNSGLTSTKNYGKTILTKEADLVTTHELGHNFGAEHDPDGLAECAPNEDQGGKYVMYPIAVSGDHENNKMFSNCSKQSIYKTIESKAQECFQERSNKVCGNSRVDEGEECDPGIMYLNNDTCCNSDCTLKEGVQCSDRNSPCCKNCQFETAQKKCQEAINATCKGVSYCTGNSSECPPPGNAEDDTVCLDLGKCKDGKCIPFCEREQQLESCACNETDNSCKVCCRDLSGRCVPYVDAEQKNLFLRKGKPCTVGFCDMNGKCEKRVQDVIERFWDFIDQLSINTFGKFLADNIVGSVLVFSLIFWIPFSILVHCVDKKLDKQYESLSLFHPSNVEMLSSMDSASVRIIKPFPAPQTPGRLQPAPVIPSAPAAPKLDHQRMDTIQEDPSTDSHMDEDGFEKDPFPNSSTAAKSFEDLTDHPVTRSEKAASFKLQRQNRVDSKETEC

The first assay has as its target T1, TACE (Homo sapiens, UniProt P78536).
T1 construct: purchased Immunex
The experiment in a line: Procedure for Measuring TACE Inhibition. The class given is biochemical. To be noted: 1 µM; Examples 110-168. As for the experimental part:
Using 96-well black microtiter plates, each well receives a solution composed of 10 µL TACE (Immunex, final concentration 1µg/mL), 70µL Tris buffer, pH 7.4 containing 10% glycerol (final concentration 10 mM), and 10 µL of test compound solution in DMSO (final concentration 1µM, DMSO concentration <1%) and incubated for 10 minutes at room temperature. The reaction is initiated by addition of a fluorescent peptidyl substrate (final concentration 100 µM) to each well and then shaking on a shaker for 5 sec. The reaction is read (excitation 340 nm, emission 420 nm) for 10 min. and the increase in fluorescence over time is plotted as a linear line. The slope of the line is calculated and represents the reaction rate. The linearity of the reaction rate is confirmed (r^2 >0.85). The mean (x±sem) of the control rate is calculated and compared for statistical significance (p<0.05) with drug-treated rates using Dunnett's multiple comparison test.
As to “(1-Hydroxycarbamoyl-propane-1-sulfonyl)-acetic acid hydroxyamide [Example 120]”, the “TACE % inhibition at 1 µM” value was 19.9%.

The same assay, now with this note: 1 µM; Examples 169-240.
In the case of “2,5-Dichloro-thiophene-3-sulfonic acid 4-(1-hydroxycarbamoyl-heptylsulfinyl)-hydroxyamide [Example 236]”, the “TACE % inhibition at 1 µM” value came to 35%.

With “3-(1-Hydroxycarbamoyl-heptylsulfanyl)-benzoic acid hydroxyamide [Example 184]”, the “TACE % inhibition at 1 µM” value came to 24.8%.

Turning to “3-(1-Hydroxycarbamoyl-heptylsulfinyl)-benzoicacid hydroxyamide [Example 188]”, the “TACE % inhibition at 1 µM” value was found to be 16.2%. Regarding `CCCCCCC(Sc1ccc(OCCCC)cc1)C(=O)NO` (centres unmarked) [Example 200, 2-(4-Butoxy-benzenesulfanyl)-octanoic acid hydroxyamide], the “TACE % inhibition at 1 µM” value was 37.9%. The same measure, in the same setting: next, `CCCCCCC(Sc1ccc(OCCN2CCNCC2)cc1)C(=O)NO` (centres unmarked) [Example 201, 2-[4-(2-Piperazine-1-yl-ethoxy)-benzenesulfanyl]-octanoic acid hydroxyamide]: 50.9%; “Ethanesulfonic acid 4(1-hydroxycarbamoyl-heptylsulfanyl)-hydroxyamide [Example 234]”: 18.4%.

The assay is the same for the next values; noted with them: Examples 169-240; read-out: TACE IC50.
Consider `CCCCCCC(C(=O)NO)[S+]([O-])c1ccc(OC2CCN(C)C2)cc1` (centres unmarked) [Example 215, 2-[4-(1-Methyl-pyrrolidin-3-yloxy)-benzenesulfinyl]-octanoic acid hydroxyamide], for which the IC50 came out at 895 nM.

`CCCCCCC(C(=O)NO)S(=O)(=O)c1ccc(OC2CCN(C)C2)cc1` (centres unmarked) [Example 218, 2-[4-(1-Methyl-pyrrolidin-3-yloxy)-benzenesulfonyl]-octanoic acid hydroxyamide]: the IC50 is 380 nM. The same measure, in the same setting: next, `CCCCCCC(C(=O)NO)[S+]([O-])c1ccc(-c2ccc(Cl)cc2)cc1` (centres unmarked) [Example 221, 2-(4'-Chloro-biphenyl-4-sulfinyl)-octanoic acid hydroxyamide]: 146 nM; `CCCCCCC(C(=O)NO)[S+]([O-])c1ccc(-c2ccc(Cl)s2)cc1` (centres unmarked) [Example 222, 2-[4-(5-Chloro-thiophen-2-yl)-benzenesulfinyl]-octanoic acid hydroxyamide]: 212 nM; `CCCCCCC(C(=O)NO)S(=O)(=O)c1ccc(-c2ccc(Cl)s2)cc1` (centres unmarked) [Example 224, 2-[4-(5-Chloro-thiophen-2-yl)-benzenesulfonyl]-octanoic acid hydroxyamide]: 404 nM. On the same count and under the same terms, next, `CCCCCCC(Sc1ccc(NCCCN2CCOCC2)cc1)C(=O)NO` (centres unmarked) [Example 225, 2-[4-(3-morpholin-4-yl-propylamino)-phenylsulfanyl]-octanoic acid hydroxyamide]: 96.6 nM.

Still in this assay, the particulars now being: read-out: TACE % inhibition at 1 µM; 1 µM; Examples 169-240.
For the compound `CCCCCCC(Sc1ccc(OCCCCCO)cc1)C(=O)NO` (centres unmarked) [Example 202, 2-[4-(5-Hydroxy-pentyloxy)-phenylsulfanyl]-octanoic acid hydroxyamide], the inhibition at 1 µM came out at 10.6%. Still for that read-out and setting: next, `CCCCCCC(C(=O)NO)[S+]([O-])c1ccc(OCc2ccccc2)cc1` (centres unmarked) [Example 204, 2-(4-Benzyloxy-phenylsulfinyl)-octanoic acid hydroxyamide]: 7.75%; `CCCCCCC(C(=O)NO)[S+]([O-])c1ccc(OCCCC)cc1` (centres unmarked) [Example 205, 2-(4-Butoxy-benzenesulfinyl)-octanoic acid hydroxyamide]: 84%.

In the case of `CCCCCCC(C(=O)NO)[S+]([O-])c1ccc(OCCCc2ccccn2)cc1` (centres unmarked) [Example 207, 2-[4-(3-Pyridin-2-yl-propoxy)-benzenesulfinyl]-octanoic acid hydroxyamide], the inhibition at 1 µM is -6.3%.

Take `CCCCCCC(C(=O)NO)S(=O)(=O)c1ccc(OCc2ccccc2)cc1` (centres unmarked) [Example 208, 2-(4-Benzyloxy-phenylsulfonyl)-octanoic acid hydroxyamide]: the inhibition at 1 µM was found to be 67.7%. In the case of `CCCCCCC(C(=O)NO)S(=O)(=O)c1ccc(OCCCC)cc1` (centres unmarked) [Example 209, 2-(4-Butoxy-benzenesulfonyl)-octanoic acid hydroxyamide], the inhibition at 1 µM is 31.2%. On the same count and under the same terms, next, `CCCCCCC(C(=O)NO)S(=O)(=O)c1ccc(OCCCc2ccccn2)cc1` (centres unmarked) [Example 211, 2-[4-(3-Pyridin-2-yl-propoxy)-benzenesulfonyl]-octanoic acid hydroxyamide]: 20.7%; `CCCCCCC(C(=O)NO)[S+]([O-])c1ccc(OC2CCN(C)C2)cc1` (centres unmarked) [Example 215, 2-[4-(1-Methyl-pyrrolidin-3-yloxy)-benzenesulfinyl]-octanoic acid hydroxyamide]: 60.1%; `CCCCCCC(C(=O)NO)S(=O)(=O)c1ccc(OC2CCN(C)C2)cc1` (centres unmarked) [Example 218, 2-[4-(1-Methyl-pyrrolidin-3-yloxy)-benzenesulfonyl]-octanoic acid hydroxyamide]: 68.7%. On to `CCCCCCC(C(=O)NO)S(=O)(=O)c1ccc(OC(CC)CC)cc1` (centres unmarked) [Example 219, 2-[4-(1-Ethyl-propoxy)-benzenesulfonyl]-octanoic acid hydroxyamide], for which the inhibition at 1 µM is 7.3%. Consider `CCCCCCC(C(=O)NO)[S+]([O-])c1ccc(-c2ccc(Cl)cc2)cc1` (centres unmarked) [Example 221, 2-(4'-Chloro-biphenyl-4-sulfinyl)-octanoic acid hydroxyamide], for which the inhibition at 1 µM is 98.9%. In the case of `CCCCCCC(C(=O)NO)[S+]([O-])c1ccc(-c2ccc(Cl)s2)cc1` (centres unmarked) [Example 222, 2-[4-(5-Chloro-thiophen-2-yl)-benzenesulfinyl]-octanoic acid hydroxyamide], the inhibition at 1 µM came out at 89.3%. On the same count and under the same terms, next, `CCCCCCC(C(=O)NO)S(=O)(=O)c1ccc(-c2ccc(Cl)s2)cc1` (centres unmarked) [Example 224, 2-[4-(5-Chloro-thiophen-2-yl)-benzenesulfonyl]-octanoic acid hydroxyamide]: 75%.

On to `CCCCCCC(Sc1ccc(NCCCN2CCOCC2)cc1)C(=O)NO` (centres unmarked) [Example 225, 2-[4-(3-morpholin-4-yl-propylamino)-phenylsulfanyl]-octanoic acid hydroxyamide], for which the inhibition at 1 µM came to 114%.

The assay is the same for the next values; noted with them: read-out: TACE % inhibition at 1 micromolar.
As to `COc1ccc([S+]([O-])C(C(=O)NO)c2ccccc2)cc1` (centres unmarked) [Example 8, N-Hydroxy-2-(4-methoxy-benzenesulfinyl)-2-phenyl-acetamide], the inhibition at 1 µM was determined as 47%. Still for that read-out and setting: next, `COc1ccc(S(=O)(=O)C(Cc2ccccc2)C(=O)NO)cc1` (centres unmarked) [Example 9, N-Hydroxy-2-(4-methoxy-benzenesulfonyl)-3-phenyl-propionamide]: 20.3%; `COc1ccc(S(=O)(=O)C(C)(Cc2ccc(OCCN(C(C)C)C(C)C)cc2)C(=O)NO)cc1` (centres unmarked) [Example 20, N-Hydroxy-2-(4-methoxy-benzenesulfonyl)-2-methyl-3-[4-(2-N,N-diisopropylamino-ethoxy)-phenyl]-propionamide]: 31%. The same measure, in the same setting: next, `CCN(CC)CCOc1ccc(CC(C)(C(=O)NO)S(=O)(=O)c2ccc(OC)cc2)cc1` (centres unmarked) [Example 21, N-Hydroxy-2-(4-methoxy-benzenesulfonyl)-2-methyl-3-[4-(2-N,N-diethylamino-ethoxy)-phenyl]-propionamide]: 39%; `COc1ccc(CS(=O)(=O)C(C)(Cc2ccccc2)C(=O)NO)cc1` (centres unmarked) [Example 41, N-Hydroxy-2-(4-methoxy-phenylmethanesulfonyl)-2-methyl-3-phenyl propionic acid hydroxamide]: 15.5%; `C=CCC(CC=C)(C(=O)NO)S(=O)(=O)c1ccc(OC)cc1` [Example 58, 2-allyl-2-(4-methoxy-benzenesulfonyl)-pent-4-enoic acid hydroxyamide]: 7.7%. On to `COc1ccc(S(=O)(=O)C(C)(Cc2cccnc2)C(=O)NO)cc1` (centres unmarked) [Example 61, N-hydroxy-2-(4-methoxy-benzenesulfonyl)-2-methyl-3-pyridin-3-yl-propionamide], for which the inhibition at 1 µM came to 17.2%. Still for that read-out and setting: next, `CCN1CCC(C(=O)NO)(S(=O)(=O)c2ccc(OC)cc2)CC1` [Example 95, 1-Ethyl-4-(4-methoxy-benzenesulfonyl)-piperidine-4-carboxylic acid hydroxyamide]: 25.4%; `COc1ccc(S(=O)(=O)C2(C(=O)NO)CCN(C)CC2)cc1` [Example 97, 1-Methyl-4-(4-methoxy-benzenesulfonyl)-piperidine-4-carboxylic acid hydroxyamide]: 20.2%. Still for that read-out and setting: next, `CCCCOc1ccc(S(=O)(=O)C2(C(=O)NO)CCN(Cc3ccc(F)cc3)CC2)cc1` [Example 100, 1-(4-Fluoro-benzyl)-4-(4-butoxy-benzenesulfonyl)-piperidine-4-carboxylic acid hydroxyamide]: 39.5%.

The assay is the same for the next values; noted with them: read-out: TACE IC 50.
Consider `COc1ccc(S(=O)(=O)C(Cc2ccc3ccccc3c2)C(=O)NO)cc1` (centres unmarked) [Example 40, N-Hydroxy-2-(4-methoxy-benzenesulfonyl)-3-naphthalen-2-yl-propionamide], for which the IC50 was 160 nM. On the same count and under the same terms, next, `CCCCCCCCC(Cc1cccnc1)(C(=O)NO)S(=O)(=O)c1ccc(OC)cc1` (centres unmarked) [Example 62, 2-(4-Methoxy-benzenesulfonyl)-2-pyridin-3-ylmethyl-decanoic acid hydroxyamide]: 669 nM; `COc1ccc(CN2CCC(C(=O)NO)(S(=O)(=O)c3ccc(OC)cc3)CC2)cc1` [Example 101, 4-(4-methoxy-benzenesulfonyl)-1-(4-methoxy-benzyl)-piperidine-4-carboxylic acid hydroxyamide]: 197 nM.

The target of a further assay is MMP 13 (Homo sapiens, UniProt P45452). The experiment in a line: MMP 13 inhibition (HTS; method not described). The format is biochemical. To be noted: 0.2 µM, HTS.
With `CCC(C(=O)NO)S(=O)(=O)C(C)C(=O)NO` (centres unmarked) [Example 124, (1-Hydroxycarbamoyl-propane-1-sulfonyl)-propionic acid hydroxyamide], the “MMP 13 % inhibition at 0.2 µM (HTS)” value was found to be 0%.

Staying with this assay, now noted: read-out: MMP 13 % inhibition at 0.2 µM (HTS); 0.2 µM, HTS.
On to `CC(=O)Nc1ccc([S+]([O-])C(Cc2ccccc2)C(=O)NO)cc1` (centres unmarked) [Example 129, 2-(4-Acetylamino-benzenesulfinyl)-N-hydroxy-3-phenyl-propionamide], for which the inhibition at 0.2 µM came out at 90%. For `COC(=O)CCC(Sc1ccc(SC)cc1)C(=O)NO` (centres unmarked) [Example 131, 4-Hydroxycarbamoyl-4-(4-methanesulfanyl-phenylsulfanyl)-butyric acid methyl ester], the inhibition at 0.2 µM came to 71%.

`O=C(CCC(C(=O)NO)[S+]([O-])c1ccc(Br)cc1)NO` (centres unmarked) [Example 135, 4-Hydroxycarbamoyl-4-(4-bromo-benzenesulfinyl)-butyric acid hydroxyamide]: the inhibition at 0.2 µM was 79%.
